Like-named read-outs stand apart in the source and are kept apart here. One block for each compound: values may come before it.
Tests used:
[1] = tested on: murine L-5178 lymphoma cells transfected with the human MDR1 gene; test: MDR reversal, rhodamine 123 fluorescence activity ratio; conditions: FAR >1 indicates MDR reversal; for FAR value 4 μg/ml: compound 4 μg/ml; for FAR value 40 μg/ml: compound 40 μg/ml
Description: A solution of the test compound (2 mg/ml, 10 μl) in dimethylsulfoxide was added to aliquots of the cell suspension and incubated at room temperature for 10 minutes. […] The cells were washed twice and resuspended in PBS (pH 7.4) after which the fluorescence was measured using a Beckton Dickinson FACScan instrument. The fluorescence of the cells was measured in treated MDR cells (F1), untreated MDR cells (F2), treated parental cells (F3) […] were obtained from the following equation, viz (F1/F2)/(F3/F4).

[2] = tested on: human squamous cell carcinomas HSC-2; test: Cytotoxicity CC50, MTT assay, HSC-2
Description: (§1) In addition, the compounds were evaluated against human squamous cell carcinomas (HSC-2 and HSC-4) and human promyelocytic leukemia neoplasms (HL-60) and compared with normal cells, i.e. human gingival fibroblasts (HGF), human pulp cells (HPC) and human periodontal ligament fibroblasts (HPLF).
(§2) MTT stands for 3-(4,5-dimethylthiazol-2-yl)-2,5-diphenyltetrazolium bromide). The cells were incubated with varying concentrations of the compounds along with untreated cells for 24 h and the absorbance at 540 nm measured. In the case of the HL-60 assay, the trypan blue exclusion method was followed and cell viability was determined using a haemocytometer. The CC50 values were obtained from dose-response curves (Sakagami, H.; Satoh, K.; Ohata, H.; Takahashi, H.; Yoshida, H.; Iida, M.; Kuribayashi, N.; Sakagami, T.; Momose, K.; Takeda, M. Anticancer Res. 1996, 16, 2635-2644). The general methods used in culturing the cells employed in these cytotoxicity experiments have been described previously (Kawase, M.; Sakagami, H.; Motohashi, N.; Hauer, H.; Chatterjee, S. S.; Spengler, G.; Vigyikanne, A. V.; Molnár, A.; Molnár, J. In Vivo 2005, 19, 705-712; and Takeuchi, R.; Hoshijima, H.; Onuki, N.; Nagasaka, H.; Chowdhury, S. A.; Kawase, M.; Sakagami, H. Anticancer Res. 2005, 25, 4037-4042). In brief, the malignant cells were obtained from Professor Nagumo, Showa University, Japan. The HGF, HPC and HPLF cells were prepared from human periodontal tissue after obtaining informed consent according to the guidelines of Meikai University Ethics Committee, Japan (No. 0206). Since normal cells have a short lifespan, cells at the 3-7 population doubling time were used. With the exception of the HL-60 neoplasm, the cells were cultured in DMEM containing heat-inactivated FBS (10%) at 37° C. in a humidified carbon dioxide atmosphere and subcultured by trypsinization. The HL-60 cells were cultured in a similar fashion except that RPMI 1640 media was employed.

[3] = tested on: human promyelocytic leukemia HL-60; test: Cytotoxicity CC50, trypan blue exclusion, HL-60
Description: as §1, §2

[4] = tested on: HGF, HPC and HPLF cells versus HSC-2, HSC-4 and HL-60 neoplasms; test: Selectivity index, normal versus malignant cells; type: cell-based, human; conditions: average CC50 of HGF, HPLF divided by average CC50 of HSC-2, HSC-4, HL-60
Description: as §1, §2

[5] = tested on: human squamous cell carcinomas HSC-4; test: Cytotoxicity CC50, MTT assay, HSC-4
Description: as §1, §2

SR = test: Human tumour cell line panel, leukemic SR; type: cell-based; conditions: 48 h, read-out: Leukemic cells, IC50(μM) SR
Description: (§3) In addition, both 5-fluorouracil and melphalan were evaluated towards 57 cell lines. […] MG MID is the average of the potencies of the compound to approximately 50 neoplastic cell lines.

HCT 116 = test: Human tumour cell line panel, colon cancer HCT 116; type: cell-based; conditions: read-out: Colon cancer cells, IC50(μM) HCT 116
Description: as §3

human tumour cell lines = test: Panel of human tumour cell lines, all cell lines (mean graph midpoint); type: cell-based; conditions: for IC50: mean graph midpoint, average of 49 (38-59) human tumour cell lines, 48 h incubation, read-out: All cell lines IC50
Description: A number of compounds of the invention were further assessed against numerous human malignant cell lines. An average of 49 cell lines from nine different neoplastic diseases, namely leukemia, melanoma, non-small cell lung, colon, central nervous system, ovarian, renal, prostate, and breast cancers were employed.
as §3

SW 620 = test: Human tumour cell line panel, colon cancer SW 620; type: cell-based; conditions: read-out: Colon cancer cells, IC50(μM) SW 620
Description: as §3

HCC 2998 = test: Human tumour cell line panel, colon cancer HCC 2998; type: cell-based; conditions: read-out: Colon cancer cells, IC50(μM) HCC 2998
Description: as §3

K 562 = test: Human tumour cell line panel, leukemic K 562; type: cell-based; conditions: read-out: Leukemic cells, IC50(μM) K 562
Description: as §3

HL 60 = test: Human tumour cell line panel, leukemic HL 60; type: cell-based; conditions: read-out: Leukemic cells, IC50(μM) HL 60
Description: as §3

KM 12 = test: Human tumour cell line panel, colon cancer KM 12; type: cell-based; conditions: read-out: Colon cancer cells, IC50(μM) KM 12
Description: as §3

[6] = tested on: human gingival fibroblasts (HGF); test: in vitro
Description: as §1, §2

[7] = tested on: human periodontal ligament fibroblasts (HPLF); test: in vitro
Description: as §1, §2

[8] = tested on: HSC-2, HSC-4 and HL-60 malignant cells; test: Average CC50 for malignant cells
Description: as §1, §2

RPMI 8226 = test: Human tumour cell line panel, leukemic RPMI 8226; type: cell-based; conditions: read-out: Leukemic cells, IC50(μM) RPMI 8226
Description: as §3

HCT 15 = test: Human tumour cell line panel, colon cancer HCT 15; type: cell-based; conditions: read-out: Colon cancer cells, IC50(μM) HCT 15
Description: as §3

human pulp cells (HPC) = test: in vitro
Description: as §1, §2

COLO 205 = test: Human tumour cell line panel, colon cancer COLO 205; type: cell-based; conditions: read-out: Colon cancer cells, IC50(μM) COLO 205
Description: as §3

in vitro [9] = conditions: human
Description: as §1, §2

in vitro [10] = conditions: human; remark: listed apart in the source
Description: as §1, §2

in vitro [11] = conditions: human; remark: listed apart in the source
Description: as §1, §2

mice = conditions: five consecutive daily doses of 240 mg/kg; cited from earlier work
[12] = tested on: synthetic DNA, poly(d(AT)); conditions: cited from earlier work
[13] = tested on: murine lymphocytic leukemia P388/MRI cell line; conditions: cited from earlier work
[14] = Homo sapiens, HSC-2, 24 h, read-out: CC50(μM) HSC-2
[15] = Homo sapiens, HL-60, 24 h, read-out: CC50(μM) HL-60
[16] = Homo sapiens, HSC-4, 24 h, read-out: CC50(μM) HSC-4

- melting point: 170 to 172 °C
Structure (SMILES): CCN(CC)CCOc1ccc(C(=O)O)cc1.Cl

Structure (SMILES): CCN(CC)CCOc1ccc(C(=O)N2CC(=Cc3ccc(C)cc3)C(=O)C(=Cc3ccc(C)cc3)C2)cc1.Cl [Compound 4d, 1-[4-(2-Diethylaminoethoxy)phenylcarbonyl]-3,5-bis(4-methylphenylmethylene)-4-piperidone hydrochloride]
- FAR value 4 μg/ml [1]: 106
- FAR value 40 μg/ml [1]: 66.6
- CC50 [2, 14]: 2.2 µM
- CC50 [3, 15]: 0.79 µM
- SI (selectivity index) [4]: 3.3
- CC50 [5, 16]: 2.3 µM

- melting point: 177 to 178 °C
Structure (SMILES): COc1ccc(C(=O)N2CC(=Cc3ccccc3)C(=O)C(=Cc3ccccc3)C2)cc1 [Compound 2b, 1-(4-Methoxybenzoyl)-3,5-bis(phenylmethylene)-4-piperidone]

Structure (SMILES): CCN(CC)CCOc1ccc(C(=O)N2CC(=Cc3ccc([N+](=O)[O-])cc3)C(=O)C(=Cc3ccc([N+](=O)[O-])cc3)C2)cc1.Cl [Compound 4c, 1-[4-(2-Diethylaminoethoxy)phenylcarbonyl]-3,5-bis(4-nitrophenylmethylene)-4-piperidone hydrochloride]
- FAR value 4 μg/ml [1]: 77.5
- FAR value 40 μg/ml [1]: 14.1
- CC50 [2, 14]: 0.98 µM
- CC50 [3, 15]: 0.26 µM
- SI (selectivity index) [4]: 6.6
- CC50 [5, 16]: 1.1 µM

- IC50 (SR): 22.9 µM
- IC50 (HCT 116; 48 h): 14.1 µM
- IC50 (human tumour cell lines): 7.76 µM
- IC50 (SW 620; 48 h): 10.5 µM
- IC50 (HCC 2998; 48 h): 6.17 µM
- IC50 (K 562; 48 h): 1.35 µM
- IC50 (HL 60; 48 h): 11.8 µM
- IC50 (KM 12; 48 h): 9.33 µM
- IC50 (RPMI 8226; 48 h): 1.26 µM
- IC50 (HCT 15; 48 h): 9.33 µM
- IC50 (COLO 205; 48 h): 8.91 µM
Structure (SMILES): CC[N+](C)(CC)CCOc1ccc(C(=O)N2CC(=Cc3ccc(C)cc3)C(=O)C(=Cc3ccc(C)cc3)C2)cc1.[I-] [Compound 7d, 1-[4-(2-Diethylaminoethoxy)phenylcarbonyl]-3,5-bis(4-methylphenylmethylene)-4-piperidone methoiodide]
- FAR value 4 μg/ml [1]: 1.93
- FAR value 40 μg/ml [1]: 114
- CC50 [2]: 17 µM
- CC50 [3]: 16 µM
- CC50 [6]: 34 µM
- CC50 [7]: 8.3 µM
- CC50 [5]: 17 µM
- CC50(μM) ave [8]: 17 µM
- CC50 (human pulp cells (HPC)): 29 µM

Structure (SMILES): Cl.O=C1C(=Cc2ccc(Cl)cc2)CN(C(=O)c2ccc(OCCN3CCCCC3)cc2)CC1=Cc1ccc(Cl)cc1 [Compound 5b, 3,5-bis(4-Chlorophenylmethylene)-1-[4-{2-(1-piperidinyl)ethoxy}phenylcarbonyl]-4-piperidone hydrochloride]
- IC50 (SR; Homo sapiens, SR): 2.29 µM
- IC50 (HCT 116; Homo sapiens, HCT-116, 48 h): 47.9 µM
- FAR value 4 μg/ml [1]: 157
- FAR value 40 μg/ml [1]: 133
- IC50 (human tumour cell lines): > 11.5 µM
- S.I. (selectivity index) (human tumour cell lines; ratio of the IC50 figures for the least and most sensitive cell lines): >66.1
- IC50 (SW 620; Homo sapiens, SW-620, 48 h): 3.55 µM
- CC50 [2, 14]: 110 µM
- CC50 [3, 15]: 63 µM
- IC50 (HCC 2998; Homo sapiens, HCC 2998, 48 h): 1.58 µM
- IC50 (K 562; Homo sapiens, K562, 48 h): 4.37 µM
- IC50 (HL 60; Homo sapiens, HL-60, 48 h): 20.4 µM
- SI (selectivity index) [4]: >5.2
- IC50 (KM 12; Homo sapiens, KM12, 48 h): 19.1 µM
- CC50 at 24 h (in vitro [9]): > 400 µM
- CC50 at 24 h (in vitro [10]): 340 µM
- CC50 [5, 16]: 48 µM
- IC50 (RPMI 8226; Homo sapiens, RPMI-8226, 48 h): 0.759 µM
- IC50 (HCT 15; Homo sapiens, HCT-15, 48 h): 49 µM
- CC50 at 24 h (in vitro [11]): > 400 µM
- IC50 (COLO 205; Homo sapiens, COLO 205, 48 h): 15.8 µM

Structure (SMILES): Cc1ccc(C=C2CNCC(=Cc3ccc(C)cc3)C2=O)cc1 [Compound 1d, 3,5-bis(4-Methylphenylmethylene)-4-piperidone]
- FAR value 4 μg/ml [1]: 3.26
- FAR value 40 μg/ml [1]: 4.03
- CC50 [2, 14]: 3.9 µM
- CC50 [3, 15]: 4.5 µM
- SI (selectivity index) [4]: 29
- CC50 [5, 16]: 9.3 µM

Structure (SMILES): CCN(CC)CCOc1ccc(C(=O)N2CC(=Cc3ccc(Cl)cc3)C(=O)C(=Cc3ccc(Cl)cc3)C2)cc1.Cl [Compound 4b, 3,5-bis(4-Chlorophenylmethylene)-1-[4-(2-diethylaminoethoxy)phenylcarbonyl]-4-piperidone hydrochloride]
- FAR value 4 μg/ml [1]: 118
- FAR value 40 μg/ml [1]: 99.7
- CC50 [2, 14]: 160 µM
- CC50 [3, 15]: 46 µM
- SI (selectivity index) [4]: >4.3
- CC50 at 24 h (in vitro [9]): 230 µM
- CC50 at 24 h (in vitro [10]): > 400 µM
- CC50 [5, 16]: 34 µM
- CC50 at 24 h (in vitro [11]): > 400 µM

- melting point: 165 to 166 °C
Structure (SMILES): O=C1C(=Cc2ccccc2)CN(C(=O)c2ccccc2)CC1=Cc1ccccc1 [Compound 2a, 1-Benzoyl-3,5-bis(phenylmethylene)-4-piperidone]

- IC50 (SR): 38 µM
- IC50 (HCT 116; 48 h): > 50.1 µM
- IC50 (human tumour cell lines): > 41.7 µM
- IC50 (SW 620; 48 h): 30.2 µM
- IC50 (HCC 2998; 48 h): 28.2 µM
- IC50 (K 562; 48 h): 43.7 µM
- IC50 (HL 60; 48 h): > 50.1 µM
- IC50 (KM 12; 48 h): 43.7 µM
- IC50 (RPMI 8226; 48 h): 17.4 µM
- IC50 (HCT 15; 48 h): > 50.1 µM
- IC50 (COLO 205; 48 h): 20.4 µM
Structure (SMILES): CC[N+](C)(CC)CCOc1ccc(C(=O)N2CC(=Cc3ccccc3)C(=O)C(=Cc3ccccc3)C2)cc1.[I-] [Compound 7a, 1-[4-(2-Diethylaminoethoxy)phenylcarbonyl]-3,5-bis(phenylmethylene)-4-piperidone methoiodide]
- FAR value 4 μg/ml [1]: 1.37
- FAR value 40 μg/ml [1]: 1.05
- CC50 [2]: 130 µM
- CC50 [3]: 82 µM
- CC50 [6]: 160 µM
- CC50 [7]: 79 µM
- CC50 [5]: 82 µM
- CC50(μM) ave [8]: 98 µM
- CC50 (human pulp cells (HPC)): 170 µM

Structure (SMILES): O=C1C(=Cc2ccccc2)CNCC1=Cc1ccccc1 [Compound B1]
- Fatalities in mice (mice): did not induce fatalities
- Binding to poly(d(AT)) [12]: does bind
- Cytotoxic activity [13]: possesses cytotoxic activity

From US7582655B2, “Antineoplastic compounds” (University of Saskatchewan, priority 2005, dated 2009)
